Experimental data published in patent US10968181B2, “NRF2 activator” (BIOGEN MA INC., priority 2016, dated 2021).

Assays:
human astrocytes [1] = assay: Glutathione assay in cultured human astrocytes; format: cell-based; details: 20-hr exposure, FIG. 2
Procedure: (§1) Human astrocytes from ScienCell (cat #1820) were grown in astrocyte medium per supplier's instructions. Cells cultured for no more than two passages were plated in poly-D-lysine coated 96-well plates at 40,000 cells per well for gene transcription experiments and 20,000 cell per well for glutathione and cytoprotection assays.
Intracellular glutathione was measured after a 20-hr exposure to test compounds by a two-step process. First, cells were lysed and luciferin quantitatively generated from substrate, catalyzed by glutathione-S-transferase in the presence of analyte glutathione. Then luciferin was assayed using stabilized luciferase to produce a luminescent signal proportional to the concentration of glutathione (Promega GSH-Glo, cat #V6912).

Nrf2 target genes [2] = assay: Nrf2 target gene expression (qRT-PCR) in tissues of wild type and Nrf2−/− mice; format: in vivo
Procedure: All procedures involving animals were performed in accordance with standards established in the Guide for the Care and Use of Laboratory Animals as adopted by the U.S. National Institutes of Health. All animal protocols were approved by the Biogen Institutional Animal Care and Use Committee, which is accredited by the Association for Assessment and Accreditation of Laboratory Animal Care International. Female 6-10 week-old wild type C57BL/6 and Nrf2−/− mice (Itoh et al, 1997; maintained at Jackson Labs, Bar Harbor, Me.) were maintained on a 12-hour light/dark cycle and given access to food and water ad libitum.
Compound 12-Ent1 (25 mg/kg) was administered as a single, oral dose in a vehicle of Solutol HS-15/polyethylene glycol/ethanol/water (10/10/10/70) to C57BL/6 (wt) and Nrf2−/− mice. Brain, jejunum, kidney and spleen were collected at 2 or 6 hours after dosing and snap frozen for RNA analysis of Nrf2 target genes.
For RNA preparation, frozen tissues were placed in 2 mL RNAse-free 96-well blocks with 1.5 ml QIAzol Lysis Reagent (QIAgen) and a 3.2 mm stainless steel bead (BioSpec Products, Bartlesville, Okla.). Tissues were disrupted for four cycles of 45 seconds in a Mini-Beadbeater (Biospec Products). RNA was extracted in chloroform and the aqueous phase was mixed with an equal volume of 70% ethanol. Extracted RNA was applied to RNeasy 96 plates and purified by the spin method according to the manufacturer's protocol (RNeasy 96 Universal Tissue Protocol, QIAgen, Hilden Germany).
qRT-PCR was performed from total mRNA isolated from tissues and reverse-transcribed into cDNA according to manufacturer protocols (Life Technologies, Carlsbad, Calif.). 20× Taqman target gene mouse primer/probe sets (see table below) were mixed with cDNA and 2× Taqman Universal Master Mix to a final volume of 20 uL. All final reactions contained 100 ng of cDNA, 900 nM of each primer, and 250 nM TaqMan® probes and were cycled on a QuantStudio™ 12K Flex system (Life Technologies). All samples were measured in triplicate using beta actin as a normalizing gene. Final analysis was performed using the comparative CT method to calculate fold changes and samples were normalized relative to wild type vehicle control at each time point.

γ-globin gene = γ-globin gene induction in spleen of Townes mice; format: in vivo, Townes SCD mouse; details: Townes SS mice, oral single dose 10, 25 or 50 mg/kg or two doses of 25 mg/kg; at least at the 24 hour time point; FIGS. 9A-9D and 11
From the text: (§2) All animal experiments conformed to the guidance issued by the Biogen Institutional Animal Care and Use Committee and are described in approved protocols. The SCD mouse strain used in the in vivo studies is the Townes SCD mouse [Wu L C, Sun C W, Ryan™, Pawlik K M, Ren J, Townes™. Correction of sickle cell disease by homologous recombination in embryonic stem cells. Blood. 2006, 108(4):1183-8]. […] These mice harboring the sickle cell mutations in the hemoglobin β-globins chain show the presence of sickle cell disease characterized by abnormally low hemoglobin, circulating sickle shaped erythrocytes, varying degrees of damage of internal organs such as spleen, liver, and kidney. Male and female Townes SS mice aged 8 to 12 weeks were used for studies described here. […]
(§3) Frozen spleens were placed at room temperature. […] Extracted RNA was then quantitated using a Nanodrop and 1 μg of total RNA was converted to cDNA using VILO Mastermix kit according to manufacturer's protocol.
(§4) cDNA prepared from RNA isolated from tissue samples was used to determine gene expression levels of using Taqman based real time PCR (Life Technologies, ThermoFisher Scientific). […] Results were analyzed using the 7500 software version 2.0.5 and the relative levels of transcripts were measured with GAPDH as the endogenous housekeeping gene control using the 2^−ΔΔCt relative quantification method.

human astrocytes [3] = assay: Cytoprotection of human astrocytes against sodium arsenite; format: cell-based; details: compound 20 hrs before arsenite, then 22 hrs, FIG. 3
Procedure: Human astrocytes from ScienCell (cat #1820) were grown in astrocyte medium per supplier's instructions. Cells cultured for no more than two passages were plated in poly-D-lysine coated 96-well plates at 40,000 cells per well for gene transcription experiments and 20,000 cell per well for glutathione and cytoprotection assays. Astrocytes were treated for 20 hrs with test compounds, then the medium was removed and replaced with serum- and supplement-free growth medium with and without 25 μM sodium arsenite. After 22 hrs., cells were washed with PBS, fixed with 4% paraformaldehyde/4% sucrose in PBS, stained with 4′,6-Diamidino-2-phenylindole dihydrochloride (DAPI) and counted by quantitative fluorescence microscopy.

NQO-1 gene = NQO-1 gene induction in spleen of Townes mice; format: in vivo, Townes SCD mouse; details: Townes SS mice, oral single dose 10 or 50 mg/kg or two doses of 25 mg/kg; at least at the 6 hour time point; FIGS. 10A-10C and 12
From the text: as §2, §3, §4

HUDEP cells = assay: HbF protein ELISA in cultured HUDEP cells; format: cell-based, human; details: differentiating HUDEP cells, 72 hours, compared to DMSO; FIG. 8
Procedure: Human Umbilical Derived Erythroid Cells (HUDEP; from Riken Institute, Japan) were cultured in Stemspan SFEM medium (Stemcell Technologies, Vancouver, Canada) supplemented with erythroid cytokines and growth factors. Compound incubations were performed in HUDEP cells cultured in differentiation media.
Differentiating HUDEP cells were cultured with increasing concentrations of 12-Ent1 or equivalent DMSO concentrations for 72 hours and the levels of HbF protein was measured using a commercially available ELISA specific for human HbF (Bethyl Laboratories, TX) based on manufacturer's protocol.

Nrf2 target genes [4] = assay: Gene expression (RT-PCR) in cultured human astrocytes; format: cell-based; details: human astrocytes treated 20 hours; compared to 0.03% DMSO vehicle; FIGS. 1A to 1D
Procedure: as §1
Primary cultures of human spinal cord astrocytes were treated with test compounds for 20 hours. The cells were then rinsed in PBS, lysed, and processed for RNA using Ambion Taqman™ Cells-to-CT kit. The resulting cDNA was stored at −20° C. until analysis by real-time polymerase chain reaction (RT-PCR). The cDNA mixture from Cells-to-CT was diluted 5× before loading into PCR. This yields results similar to using 6 ng of purified cDNA. RT-PCR was performed on Life Technologies QuantStudio platform using OpenArray technique according to manufacturer's protocol using the following Taqman primers: […]
The comparative CT method was used to calculate fold changes using ThermoFisher Cloud software for PCR analysis. Samples were compared to 0.03% DMSO vehicle control.

[5] = wild type vs Nrf2−/− mice, 25 mg/kg oral

CC(=O)N1CC[C@@H]2C(C)(C)C(=O)C(C#N)=C[C@@]2(C)C1 (single isomer, unassigned) [Compound 12-Ent1]
intracellular glutathione (human astrocytes [1]): increases | expression of Akr1b8, Nqo1, Hmox1 and Osgin1 in kidney (Nrf2 target genes [2]; 25 mg/kg single oral dose, 2 hours and 6 hours after dosing, FIGS. 4A to 4D): increases | expression of Akr1b8, Nqo1, Hmox1 and Osgin1 in Jejunum (Nrf2 target genes [2]; 25 mg/kg single oral dose, 2 hours and 6 hours after dosing, FIGS. 5A to 5D): increases | expression of Nqo1, Hmox1 and Osgin1 in spleen (Nrf2 target genes [2]; 25 mg/kg single oral dose, 2 hours and 6 hours after dosing, FIGS. 6A to 6D): increases | expression of Nqo1, Hmox1 and Osgin1 in brain (Nrf2 target genes [2]; 25 mg/kg single oral dose, 2 hours and 6 hours after dosing, FIGS. 7A to 7D): increases | Nrf2 dependence of the gene expression increases in Jejunum (Nrf2 target genes [2]; [5]): Nrf2-dependent | Nrf2 dependence of the gene expression increases in brain (Nrf2 target genes [2]; [5]): Nrf2-dependent | Nrf2 dependence of the gene expression increases in kidney (Nrf2 target genes [2]; [5]): Nrf2-dependent | Nrf2 dependence of the gene expression increases in spleen (Nrf2 target genes [2]; [5]): Nrf2-dependent | human γ-globin gene in spleen (γ-globin gene): induces | protection from oxidative stress-induced cell death caused by 25 μM sodium arsenite (human astrocytes [3]): protects cells | NQO-1 gene in spleen (NQO-1 gene): induces | HbF protein in cultured HUDEP cells (HUDEP cells): induces | transcription of Nrf2 target genes, including GCLC, HMOX1, OSGIN1 and NQO1 (Nrf2 target genes [4]): induces transcription
